In data set [1] the test system is Cotton Aphid (Aphis gossypii). Put plainly: Cotton aphid (Aphis gossypii) test, infested cotton cotyledons dipped in test solution. It counts as in vivo. Particulars: 120 h, determined after 5 days, read-out: mortality of cotton aphid (Aphis gossypii, mixed life stages) in comparison with untreated controls. As for the experimental part:
(§1) The active compounds were formulated in a mixture of 50 vol.-% acetone:50 vol.-% water. A nonionic surfactant (Kinetic®) was included in the solution at a volume of 0.01% v/v.
(§2) In the following tests, the formulated solutions of the active compounds were diluted to an active ingredient concentration of 300 ppm, if not otherwise described, and the diluted solutions were applied in the below mentioned tests.
Cotton plants at the cotyledon stage were infested prior to treatment by placing a heavily infested leaf from the main aphid colony on top of each cotyledon. The aphids were allowed to transfer overnight and the host leaf was removed. The infested cotyledons were then dipped and agitated in the test solution for 3 seconds and allowed to dry in a fume hood. Test plants were maintained under fluorescent lighting in a 24-hr photoperiod at 25° C. and 20-40% relative humidity. Aphid mortality on the treated plants, relative to mortality on untreated check plants, was determined after 5 days.

Data set [2] deals with Green Peach Aphid (Myzus persicae). Put plainly: Green peach aphid (Myzus persicae) test, infested bell pepper leaves dipped in test solution. The format is in vivo. Particulars: 120 h, determined after 5 days, read-out: mortality of green peach aphid in comparison with untreated controls. As for the experimental part:
as §1, §2
Bell pepper plants at the first true-leaf stage were infested prior to treatment by placing heavily infested leaves from the main aphid colony on top of the treatment plants. The aphids were allowed to transfer overnight to accomplish an infestation of 30-40 aphids per plant and the host leaves were removed. The infested leaves of the test plants were then dipped and agitated in the test solution for 3 seconds and allowed to dry in a fume hood. Test plants were maintained under fluorescent lighting in a 24-hr photoperiod at 25° C. and 20-40% relative humidity. Mortality on the treated plants, relative to mortality on untreated check plants, was determined after 5 days.

Data set [3] concerns Vetch Aphid (Megoura viciae). Put plainly: Vetch aphid (Megoura viciae) test, sprayed bean leaf disks in microtiterplates. The format is in vivo. Particulars: foliar, 144 h, bean leaf disks sprayed with 2.5 μl, 6 days, read-out: mortality compared to untreated controls. As for the experimental part:
The active compounds were formulated in 1:3 DMSO:water. Bean leaf disks were placed into microtiterplates filled with 0.8% agar-agar and 2.5 ppm OPUS™. The leaf disks were sprayed with 2.5 μl of the test solution and 5 to 8 adult aphids were placed into the microtiterplates which were then closed and kept at 22-24° C. and 35-45% under fluorescent light for 6 days. Mortality was assessed on the basis of vital, reproduced aphids. Tests were replicated 2 times.

Data set [4] has as its system Cowpea Aphid (aphis craccivora). Description: Cowpea aphid (aphis craccivora) test, colonized potted cowpea plants sprayed. It counts as in vivo. As to conditions: population reduction recorded after 24, 72, and 120 hours. As for the experimental part: as §2
The active compounds were formulated in 50:50 acetone:water. Potted cowpea plants colonized with 100-150 aphids of various stages were sprayed after the pest population has been recorded. Population reduction was recorded after 24, 72, and 120 hours.

Data set [5] concerns Silverleaf Whitefly (bemisia argentifolii). Description: Silverleaf whitefly (bemisia argentifolii) test, cotton cotyledons dipped, whitefly adults introduced. The format is in vivo. Particulars: 72 h, whitefly adults on dipped cotton cotyledons, assessed 3 days after treatment, read-out: mortality compared to untreated controls. As for the experimental part: as §2
The active compounds were formulated in 50:50 acetone:water and 100 ppm Kinetica™ surfactant.
Selected cotton plants were grown to the cotyledon state (one plant per pot). The cotyledons were dipped into the test solution to provide complete coverage of the foliage and placed in a well-vented area to dry. Each pot with treated seedling was placed in a plastic cup and 10 to 12 whitefly adults (approximately 3-5 day old) were introduced. The insects were colleted using an aspirator and an 0.6 cm, non-toxic TygonÒ tubing (R-3603) connected to a barrier pipette tip. The tip, containing the collected insects, was then gently inserted into the soil containing the treated plant, allowing insects to crawl out of the tip to reach the foliage for feeding. The cups were covered with a reusable screened lid (150 micron mesh polyester screen PeCap from Tetko Inc). Test plants were maintained in the holding room at about 25° C. and 20-40% relative humidity for 3 days avoiding direct exposure to the fluorescent light (24 hour photoperiod) to prevent trapping of heat inside the cup. Mortality was assessed 3 days after treatment of the plants.

Each structure is given as a SMILES string.

What is called mortality is the percentage killed. Turning to `CC1Cc2c(F)cccc2C1NC(=S)NCCO` (stereo not drawn) [Compound example 8], the mortality at 300 ppm in data set [1], in data set [2] and in data set [4] was at least 75% each time. Further, the mortality at 2500 ppm in data set [3] was at least 75%.

For the molecule `CC1(C)Cc2c(F)cccc2C1NC(=S)NCCO` (stereo not drawn) [Compound example 6], the mortality at 300 ppm in data set [1], in data set [2] and in data set [4] was at least 75% in each case. Further, in data set [3], the mortality at 2500 ppm was at least 75%.

With `OCCNC(=S)NC1CSc2c(F)cccc21` (stereo not drawn) [Compound example 2, 1-(7-Fluoro-2,3-dihydro-benzo[b]thiophen-3-yl)-3-(2-hydroxy-ethyl)-thiourea], the mortality at 300 ppm in data set [1], in data set [2] and in data set [4] was at least 75% in each case. Further, the mortality at 2500 ppm in data set [3] was at least 75%.

`CC(=O)OCCNC(=S)NC1CSc2c(F)cccc21` (stereo not drawn) [Compound example 3, Acetic acid 2-[3-(7-fluoro-2,3-dihydro-benzo[b]thiophen-3-yl)thioureido]-ethyl ester]: the mortality at 300 ppm in data set [5], in data set [2] and in data set [4] was at least 75% in each case. In addition, the mortality at 2500 ppm in data set [3] is at least 75%.

For `OCCNC(=S)NC1COc2ccc(F)cc21` (stereo not drawn) [Compound example 1, 1-(5-Fluoro-2,3-dihydro-benzofuran-3-yl)-3-(2-hydroxy-ethyl)-thiourea], the mortality at 300 ppm in data set [1], in data set [2] and in data set [4] was at least 75% each time. Besides, in data set [3], the mortality at 2500 ppm was at least 75%.

As for `CC(=O)OCCNC(=S)NC1c2cccc(F)c2CC1(C)C` (stereo not drawn) [Compound example 5], the mortality at 300 ppm in data set [5], in data set [1], in data set [2] and in data set [4] was at least 75% in each case. Further, the mortality at 2500 ppm in data set [3] was at least 75%.

On to `CC(=O)OCCNC(=S)NC1CC(C)c2c(F)cccc21` (stereo not drawn) [Compound example 7], for which the mortality at 300 ppm in data set [5], in data set [1] and in data set [2] was at least 75% in each case. Further, the mortality at 2500 ppm in data set [3] is at least 75%.

The term melting point denotes the temperature, or range, at which the solid turns liquid. The molecule `OCCNC(=S)NC1(c2ccccc2)CCc2ccccc21` (stereo not drawn) [Compound example 4] displayed a melting point of 67 to 69 °C.

The values above are taken from patent US8173675B2, “Substituted amino-thiourea compounds for combating animal pests” (BASF SE, priority 2007, dated 2012).
